The record followed here is PMC11478212, “Antitumoral and Antiproliferative Potential of Synthetic Derivatives of Scorpion Peptide IsCT1 in an Oral Cavity Squamous Carcinoma Model” (Molecules, 2024).

The subject of assay [1] is normal FN1 cells. Description: Mitochondrial membrane electrical potential (ΔΨm) by flow cytometry. In kind it is cell-based, human. Conditions: 24 h, IsCT-P and AC-AFPK-IsCT1 at IC50, others 100 µM, MitoRed, compared to control cells, mean ± SD of three independent experiments. As for the experimental part:
Figure 4 Analysis of mitochondrial electrical potential (ΔΨm) using flow cytometry following a 24 h treatment with synthetic analogs of IsCT1 peptides. The indicated cells were treated at the IC50 values obtained for the IsCT-P and AC-AFPK-IsCT1 peptides and at a concentration of 100 µM for the other peptides. (a) Representative histograms of cell distribution according to ΔΨm; (b) bar graph showing ΔΨm expressed as the mean ± SD of three independent experiments of SCC-9 tumor cells; (c) bar graph showing ΔΨm expressed as the mean ± SD of three independent experiments of SCC-25 tumor cells; (d) bar graph showing ΔΨm expressed as the mean ± SD of three independent experiments of normal FN1 cells; (e) bar graph showing ΔΨm expressed as the mean ± SD of three independent experiments of normal J774 cells. Statistical differences were obtained using ANOVA and Tukey–Kramer multiple comparison tests. * p < 0.05, ** p < 0.01, and *** p < 0.001 denote significance. ns = not significant.
Tumor (SSC-9 and SSC-25) and normal cells (FN1 and J-774) were subjected to treatment for a period of 24 h at the peptides’ IC50 concentrations. After treatment, the cells were trypsinized, centrifuged at 1200 rpm for 5 min, the supernatant was discarded, and the cells were resuspended in complete medium containing MitoRed™ (Sigma-Aldrich, USA) (200 nM/L). […]
Background: In flow cytometry, cells or beads pass a laser one at a time.

The subject of assay [2] is SCC-25 tumor cells. Nature of the assay: Cellular marker expression by flow cytometry. It counts as cell-based. As for the experimental part: (§1) Figure 6 Analysis of marker expression in tongue squamous cell carcinoma tumor cells. The expression of markers was quantified using flow cytometry after 24 h of treatment with the AC-AFPK-IsCT1 peptide at its IC50 value determined for each cell line. (a) Representative density plots display the distribution of cells with fluorescence intensity; (b) marker expression in SCC-9 tumor cells; (c) marker expression in SCC-25 tumor cells. Bar graphs present protein expression levels as the mean ± SD from three independent experiments. Values are expressed as the mean ± SD from three independent experiments. Statistical differences were determined using ANOVA and Tukey–Kramer multiple comparison tests. * p < 0.05 and *** p < 0.001 denote significance. ns = not significant.
(§2) Tumor cells SSC-9 and SSC-25, both treated with the peptides at their IC50 concentrations for 24 h and control groups (10^5 cells/mL), were incubated at 4 °C for 1 h with 1 μg of specific antibodies conjugated with Alexa Fluor™ 488. Various markers associated with cell death and cell cycle progression, such as caspase 3 and 8, cyclin D1, PCNA, p53, and TNF-α conjugated with Alexa Fluor™ 488, were used as indicated. For intracellular markers, TritonX 0.1% was used for 30 min at room temperature before antibody labeling. Following centrifugation at 1500 rpm and washing with PBS, the supernatant was discarded and the pellet was resuspended in 200 μL of FACS buffer. The reading and analysis of receptor expression on the cell surface of tumor cells were carried out using a FACScanto flow cytometer (BD) with fluorescence intensity FL1-H for the number of events (10,000 events), and the dot plots were acquired and analyzed using FCS Express software.

Assay [3] relates to SCC-9 tumor cells. Nature of the assay: Cellular marker expression by flow cytometry. It counts as cell-based. As for the experimental part: as §1, §2
[4] abbreviates: 24 h at IC50, compared to control cells, mean ± SD of three independent experiments.
[5] abbreviates: 24 h at IC50, mean ± SD of three independent experiments.

With Ac-ALGKFWPKIKSLF-NH2 [AC-AFPK-IsCT1], in assay [1], the “decrease in ΔΨm” value is “No changes”. In assay [2] (setting [4]), the “decrease in Cyclin D1 expression” value is on record as 15 ± 1.3% and the “decrease in PCNA expression” value was found to be 22.8 ± 2.5%. Moreover, in assay [2] (setting [5]), the “increase in TNF-α-expressing cells” value stood at 85.6 ± 8.4%, the “increase in caspase 3 expression” value is 86.2 ± 7%, the “increase in caspase 8 expression” value worked out at 82.3 ± 5.5% and the “increase in p53-expressing cells” value is on record as 83.5 ± 1.8%. Also, the “change in Cyclin-D1 expression” value in assay [3] (24 h at IC50) is listed as “No significant changes”. In addition, in assay [3] (setting [4]), the “increase in caspase 3 expression” value came out at 67 ± 4.9%, the “increase in caspase 8 expression” value is recorded as 61.6 ± 3%, the “increase in cells expressing TNF-α” value turned out to be 69.2 ± 2.6% and the “increase in cells expressing p53” value is listed as 60.7 ± 1.6%. In addition, the “reduction in PCNA expression” value in assay [3] (setting [4]) is 21.4 ± 0.4%.
